# From patent US8058281B2, “Use of adenine-derived compounds for the treatment of lupus” (Centre National de la Recherche Scientifique (CNRS), priority 2006, dated 2011)
# Several values for one entry are separate records, joined by “and”; a condition that tells them apart may be missing. Equal entries are not always repeated. Where two headings read alike, the source gives them in different places.
# Columns and labels:
# [1] = tested on: TNF-α secretion by PBMCs of a lupus patient; test: Basal TNF-α secretion by mononuclear blood cells of a lupus patient; type: cell-based; settings: Homo sapiens, PBMC, no LPS stimulation, one lupus patient, read-out: inhibition of spontaneous (basal) TNF-α secretion
# Protocol: FIG. 6: Inhibition of TNF-α secretion by PBMCs of a lupus patient after incubation with NCS 613. The blood cells of a lupus patient (LED2) were incubated in the presence or absence of NCS 613 (10 μM). Supernatants were recovered after 24 hours of culture and the level of TNF-α in the supernatants was measured by ELISA. The results are given as TNF-α concentration after incubation in the presence or absence of NCS 613 and the percentage inhibition of TNF-α secretion after incubation with NCS 613 is shown. Error bars show the standard deviation of duplicates.
# (§1) The blood of 5 patients with lupus, rheumatoid arthritis or Sjögren's syndrome was collected directly in heparinated tubes. Mononuclear blood cells were separated by centrifugation (30 min at 600 g) on a Ficoll gradient. Cells were then grown at a concentration of 2×10^5 cells per well in the presence or absence of compound NCS 613 (10 μM) for 45 minutes then stimulated with LPS. Supernatants were recovered after 24 hours of culture and the level of TNF-α in supernatants was measured by double sandwich ELISA (BD Biosciences).
# So the ability of compound NCS 613 to inhibit basal TNF-α secretion was studied in blood cells of this patient.
# [2] = molecular target: PDE6; test: PDE6 (so in the source) inhibition, radioenzyme assay, enzyme isolated from vascular tissue; type: biochemical, bovine; settings: PDEs isolated from vascular tissue; 1 μM substrate
# Protocol: (§2) Cyclic nucleotides phosphodiesterase activity was measured by a radioenzyme method using tritiated cyclic AMP or GMP (1 μM) as substrate (Lugnier C. et al., Biochem. Pharmacol. (1986) 35, 1743-1751; Keravis T et al., Meth. Mol. Biol. (2005) 307, 63-74.). Tritiated adenosine or guanosine monophosphate formed by hydrolysis of the labelled cyclic nucleotide was transformed, in a second incubation with excess nucleotidase, into tritiated adenosine or guanosine. The formed nucleoside was separated from nucleotides by anion exchange resin chromatography. The radioactivity of the nucleoside was measured by liquid scintillation. […]
# (§3) A 3 g piece of bovine aortic media was chopped up with scissors, homogenised using an Ultra-Turrex then using a glass/glass Potter in 7 volumes/weight of buffer A containing a cocktail of protease inhibitors (20 mM Tris-HCl, 0.25 M saccharose, 2 mM magnesium acetate, 1 mM dithiothreitol, 5 mM EGTA, 2000 U/ml aprotinine, 10 mg/l leupeptine and 10 mg/l soy-bean trypsin inhibitor). […] The column was washed until no absorption at 280 nm could be detected, then elution was with a linear NaCl gradient (0-0.5 M) in buffer B. 3 ml fractions were collected and enzymatic activity was measured under various conditions so as to determine the peaks of enzymatic activity contained in the fractions for, in the order of elution, PDE1, PDE5, PDE3 and PDE4. […]
# [3] = tested on: TNF-α secretion by blood cells of MRL/lpr mice; test: TNF-α secretion by blood cells from treated mice after ex vivo LPS stimulation; type: in vivo, mouse; settings: LPS 24 h ex vivo
# Protocol: FIG. 3: Effect of compound NCS 613 and denbufylline on the production of TNF-α by blood cells from treated mice after LPS stimulation. TNF-α secretion by blood cells from mice having received saline solution (PBS), compound NCS 613 or denbufylline after ex vivo LPS stimulation for 24 hours was measured in the supernatants by ELISA. The error bars show the standard deviation of duplicates, and the percentage inhibition of TNF-α secretion as a function of the secretion measured in the PBS group is shown. The figures refer to experiments carried out on mice aged 11 (A) and 14 (B) weeks.
# (§4) Pre-autoimmune female MRL/lpr mice aged 5 weeks received by intravenous route, either buffered saline (PBS; control group, 100 μl per mouse), or compound NCS 613, (30 μg/100 μl per mouse, diluted in saline solution containing 10% ethanol), or denbufylline (100 μg/100 μl per mouse, diluted in saline solution containing 10% ethanol). The […] groups were composed of 10 mice each. The administrations (4 in number) were carried out at the ages of 5, 7, 9 and 13 weeks, and mice were monitored regularly (observations, proteinuria test by Albutix strip, blood tests).
# TNF-α secretion was measured after bacterial lipopolysaccharide (LPS) stimulation of mouse blood cells (blood pooled from the 7 mice per group). LPS cell stimulation for 24 hours generates TNF-α secretion which can then be measured in culture supernatants. Cells from the blood of the 3 groups of mice were separated on a Ficoll gradient, and then stimulated by LPS. Supernatants were collected after 24 hours of culture, and the presence of TNF-α in supernatants was measured by a double sandwich ELISA test (BD Biosciences). This experiment was carried out at different ages (11 and 14 weeks, that is 2 weeks after the 3rd administration and 1 week after the 4th administration respectively).
# [4] = molecular target: PDE4; test: PDE4 inhibition, radioenzyme assay, enzyme isolated from vascular tissue; type: biochemical, bovine; settings: PDEs isolated from vascular tissue; 1 μM substrate
# Protocol: as §2, §3
# [5] = molecular target: recombinant PDE4D (Homo sapiens, UniProt Q08499); test: Inhibition of recombinant PDE4 subtype PDE4D; type: biochemical
# Protocol: (§5) Cyclic nucleotides phosphodiesterase activity was measured by a radioenzyme method using tritiated cyclic AMP or GMP (1 μM) as substrate (Lugnier C. et al., Biochem. Pharmacol. (1986) 35, 1743-1751; Keravis T et al., Meth. Mol. Biol. (2005) 307, 63-74.). Tritiated adenosine or guanosine monophosphate formed by hydrolysis of the labelled cyclic nucleotide was transformed, in a second incubation with excess nucleotidase, into tritiated adenosine or guanosine. The formed nucleoside was separated from nucleotides by anion exchange resin chromatography. The radioactivity of the nucleoside was measured by liquid scintillation. Enzyme incubations were carried out under conditions in which there was no more than 15% of substrate hydrolysis, and each point was repeated.
# (§6) The concentration of the substance causing 50% inhibition of enzymatic activity (IC50) at 1 μM substrate was calculated by non-linear regression (Prism, GraphPad) with the help of the results obtained for compound concentrations that varied as the molecule concentration was increased from 1 nM to 300 μM. Because of solubility problems, the maximum concentration used in this study was limited to 300 μM.
# [6] = molecular target: recombinant PDE4B (Homo sapiens, UniProt Q07343); test: Inhibition of recombinant PDE4 subtype PDE4B; type: biochemical
# Protocol: as §5, §6
# [7] = molecular target: PDE1; test: PDE1 inhibition, radioenzyme assay, enzyme isolated from vascular tissue; type: biochemical, bovine; settings: PDEs isolated from vascular tissue; 1 μM substrate
# Protocol: as §2, §3
# [8] = tested on: MRL/lpr mice; test: Proteinuria in MRL/lpr lupus mice; type: in vivo, mouse
# Protocol: FIG. 1: Effect of compound NCS 613 and denbufylline on proteinuria in MRL/lpr mice. Up to the age of 13 weeks, the mice received 4 administrations either of 30 μg of compound NCS 613 or of 100 μg of denbufylline.
# as §4
# [9] = tested on: MRL/lpr mice; test: Anti-double-stranded DNA antibodies in serum of MRL/lpr mice (ELISA); type: in vivo, mouse; settings: for percentage of mice positive for anti-DNA Abs in serum: positive = OD > 1; for age at which first anti-DNA Ab positive mice appeared: treatment stopped at 13 weeks
# Protocol: FIG. 4: Effect of compound NCS 613 and denbufylline on anti-double-stranded DNA Abs. The presence of Abs directed against DNA in murine serums was measured at different ages (in weeks) by ELISA. Results are shown as a percentage of positive mice. A mouse is defined as positive when the optical density (OD) measured by ELISA is greater than 1.
# as §4
# The presence of Abs directed against DNA in murine serums was measured at different ages by ELISA (Monneaux et al., Eur. J. Immunol. (2003) 33, 287-296; Monneaux et al, Arthritis Rheum (2004) 50, 3232-3238.). Calf thymus double-stranded DNA (Sigma) was adsorbed (100 ng/ml) on 96 well polyvinyl chloride plates (Falcon) and incubated overnight at 37° C. After three washes and a saturation step in PBS-Tween buffer containing bovine serum albumin, serums (diluted to 1/500) were incubated for one hour at 37° C. […] The absorbance was measured at 450 nm by spectrophotometry after the reaction had been stopped.
# [10] = molecular target: T1, PDE2 (Homo sapiens, UniProt O00408); test: PDE2 inhibition, radioenzyme assay, enzyme isolated from platelets; type: biochemical; settings: 1 μM substrate
# T1 construct: from tissue; host or cells: human platelets, cytosol, DEAE-Sephacel then MonoQ HPLC
# Protocol: as §5
# Washed human platelets from the French Blood Bank (Etablissement Francais du Sang) in Strasburg were left to stand, then the sedimented cells were homogenised in buffer A and centrifuged at 105.000 g for 1 hour. The supernatant was subject to chromatography following the procedure already described for the aortic media (C-2). Then the fractions rich in PDE2 (activity stimulated by 5 μM cGMP) were subject to HPLC chromatography using Pharmacia's MonoQ H/R 5×5. The fraction containing PDE2 was aliquoted and stored at −80° C. (Kameni Tcheudji J. F et al, J. Mol. Biol. (2001) 310, […].). […]
# [11] = molecular target: recombinant PDE4A (Homo sapiens, UniProt P27815); test: Inhibition of recombinant PDE4 subtype PDE4A; type: biochemical
# Protocol: as §5, §6
# [12] = tested on: TNF-α secretion by PBMCs of patients with auto-immune diseases; test: TNF-α secretion after LPS stimulation of mononuclear blood cells of autoimmune patients; type: cell-based, human; settings: for inhibition at 10 µM: Homo sapiens, PBMC
# Protocol: FIG. 5. Inhibition of TNF-α secretion by compound NCS 613 after LPS stimulation of the PBMCs of patients with auto-immune diseases. Blood cells from patients with lupus (SLE), rheumatoid arthritis (RA) and Sjögren's syndrome (SS) were incubated for 45 minutes in the presence or absence of NCS 613 (10 μM), then stimulated with LPS. The supernatants were recovered after 24 hours of culture and the level of TNF-α in supernatants was measured by ELISA. The results are given in TNF-α concentration after incubation in the presence or absence of NCS 613 (A) or as inhibition of TNF-α secretion after incubation with NCS 613 (B). Error bars show the standard deviation of duplicates.
# as §1
# [13] = molecular target: recombinant PDE4C (Homo sapiens, UniProt Q08493); test: Inhibition of recombinant PDE4 subtype PDE4C; type: biochemical
# Protocol: as §5, §6
# [14] = molecular target: T2, PDE5 (Bos taurus, UniProt Q28156); test: PDE5 inhibition, radioenzyme assay, enzyme isolated from vascular tissue; type: biochemical, bovine; settings: PDEs isolated from vascular tissue; 1 μM substrate
# T2 construct: Effects of compound NCS 613 on PDEs isolated; from tissue; host or cells: bovine aortic media, cytosol, DEAE-Sephacel fraction
# Protocol: as §2, §3
# [15] = tested on: MRL/lpr mice; test: Survival of MRL/lpr lupus mice; type: in vivo, mouse; settings: for effect on survival / life expectancy of MRL/lpr mice: 4 i.v. administrations (NCS 613 30 μg, denbufylline 100 μg), followed to 26 weeks
# Protocol: FIG. 2: Effect of compound NCS 613 (A) and denbufylline (B) on survival of MRL/lpr lupus mice. Up to the age of 13 weeks, the mice received 4 administrations either of 30 μg of compound NCS 613 or of 100 μg of denbufylline. The results are expressed in percentage survival of mice. Control mice received only PBS (phosphate buffered saline, pH 7.4) without the active ingredient.
# as §4
# [16] = mice aged 11 weeks (2 weeks after 3rd administration)
# [17] = mice aged 14 weeks (1 week after 4th administration)
# [18] = at 20 weeks of age, 4 i.v. administrations at 5, 7, 9, 13 weeks (NCS 613 30 μg, denbufylline 100 μg)
# T1 sequence (O00408 whole entry): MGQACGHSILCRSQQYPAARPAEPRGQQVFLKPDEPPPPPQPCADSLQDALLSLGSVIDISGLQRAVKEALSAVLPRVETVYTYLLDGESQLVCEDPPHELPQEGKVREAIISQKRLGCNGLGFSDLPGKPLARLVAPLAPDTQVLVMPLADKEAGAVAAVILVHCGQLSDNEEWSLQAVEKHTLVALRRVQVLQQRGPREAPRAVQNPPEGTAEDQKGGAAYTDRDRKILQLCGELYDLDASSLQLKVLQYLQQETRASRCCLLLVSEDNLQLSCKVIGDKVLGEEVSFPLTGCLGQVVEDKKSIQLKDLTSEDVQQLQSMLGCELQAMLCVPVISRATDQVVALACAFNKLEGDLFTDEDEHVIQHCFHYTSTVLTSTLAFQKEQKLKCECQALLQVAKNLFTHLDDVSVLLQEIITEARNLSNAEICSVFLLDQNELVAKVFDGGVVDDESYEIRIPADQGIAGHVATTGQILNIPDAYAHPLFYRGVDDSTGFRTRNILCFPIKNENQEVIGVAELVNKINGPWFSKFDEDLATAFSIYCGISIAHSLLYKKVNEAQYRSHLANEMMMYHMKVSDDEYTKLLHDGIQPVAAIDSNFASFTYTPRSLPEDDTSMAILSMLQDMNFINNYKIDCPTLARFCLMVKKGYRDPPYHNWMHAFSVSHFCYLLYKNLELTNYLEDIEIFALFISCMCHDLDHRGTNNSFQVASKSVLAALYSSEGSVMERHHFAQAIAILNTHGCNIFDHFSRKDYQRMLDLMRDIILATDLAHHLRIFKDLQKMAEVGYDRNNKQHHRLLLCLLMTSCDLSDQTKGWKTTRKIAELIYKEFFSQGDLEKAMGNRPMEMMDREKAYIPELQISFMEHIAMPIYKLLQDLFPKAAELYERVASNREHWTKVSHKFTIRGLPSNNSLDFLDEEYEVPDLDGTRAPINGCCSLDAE
# Chain of recombinant PDE4B (Q07343 whole entry, species assumed): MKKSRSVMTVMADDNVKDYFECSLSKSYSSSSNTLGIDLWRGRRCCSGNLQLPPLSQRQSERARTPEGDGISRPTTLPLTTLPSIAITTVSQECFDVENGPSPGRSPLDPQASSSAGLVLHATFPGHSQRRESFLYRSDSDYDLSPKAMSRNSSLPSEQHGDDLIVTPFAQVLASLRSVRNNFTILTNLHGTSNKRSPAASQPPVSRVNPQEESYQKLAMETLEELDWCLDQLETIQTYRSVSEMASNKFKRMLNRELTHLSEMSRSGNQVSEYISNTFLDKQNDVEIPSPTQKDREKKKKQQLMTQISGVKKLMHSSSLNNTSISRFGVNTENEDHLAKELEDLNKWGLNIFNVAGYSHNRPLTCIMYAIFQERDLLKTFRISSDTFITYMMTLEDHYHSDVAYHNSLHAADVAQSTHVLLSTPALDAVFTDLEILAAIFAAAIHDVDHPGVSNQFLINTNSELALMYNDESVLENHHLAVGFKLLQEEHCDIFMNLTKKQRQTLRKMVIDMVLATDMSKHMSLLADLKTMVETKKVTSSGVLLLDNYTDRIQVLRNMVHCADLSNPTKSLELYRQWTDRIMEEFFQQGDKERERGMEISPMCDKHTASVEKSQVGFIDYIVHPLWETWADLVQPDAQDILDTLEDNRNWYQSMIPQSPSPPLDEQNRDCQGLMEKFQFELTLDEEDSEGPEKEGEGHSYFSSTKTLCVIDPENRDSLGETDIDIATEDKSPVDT
# Chain of recombinant PDE4C (Q08493 whole entry, species assumed): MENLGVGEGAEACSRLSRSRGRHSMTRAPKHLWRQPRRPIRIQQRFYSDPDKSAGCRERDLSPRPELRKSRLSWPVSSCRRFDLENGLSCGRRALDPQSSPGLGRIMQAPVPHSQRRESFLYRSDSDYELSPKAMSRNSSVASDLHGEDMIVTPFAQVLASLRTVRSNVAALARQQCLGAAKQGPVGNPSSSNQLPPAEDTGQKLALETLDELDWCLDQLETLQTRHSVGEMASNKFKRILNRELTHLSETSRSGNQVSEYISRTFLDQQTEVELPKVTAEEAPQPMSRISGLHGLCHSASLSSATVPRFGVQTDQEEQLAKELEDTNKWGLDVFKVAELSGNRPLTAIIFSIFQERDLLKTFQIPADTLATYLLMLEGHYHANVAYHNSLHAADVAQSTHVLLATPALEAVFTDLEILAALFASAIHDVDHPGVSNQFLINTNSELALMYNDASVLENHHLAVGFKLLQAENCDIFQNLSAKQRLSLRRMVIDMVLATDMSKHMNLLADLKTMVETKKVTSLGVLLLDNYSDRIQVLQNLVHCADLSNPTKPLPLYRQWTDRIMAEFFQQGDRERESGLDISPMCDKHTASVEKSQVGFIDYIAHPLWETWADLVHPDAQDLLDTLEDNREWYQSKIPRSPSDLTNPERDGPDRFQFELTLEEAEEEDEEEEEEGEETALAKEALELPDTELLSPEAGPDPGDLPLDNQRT
# Chain of recombinant PDE4A (P27815 whole entry, species assumed): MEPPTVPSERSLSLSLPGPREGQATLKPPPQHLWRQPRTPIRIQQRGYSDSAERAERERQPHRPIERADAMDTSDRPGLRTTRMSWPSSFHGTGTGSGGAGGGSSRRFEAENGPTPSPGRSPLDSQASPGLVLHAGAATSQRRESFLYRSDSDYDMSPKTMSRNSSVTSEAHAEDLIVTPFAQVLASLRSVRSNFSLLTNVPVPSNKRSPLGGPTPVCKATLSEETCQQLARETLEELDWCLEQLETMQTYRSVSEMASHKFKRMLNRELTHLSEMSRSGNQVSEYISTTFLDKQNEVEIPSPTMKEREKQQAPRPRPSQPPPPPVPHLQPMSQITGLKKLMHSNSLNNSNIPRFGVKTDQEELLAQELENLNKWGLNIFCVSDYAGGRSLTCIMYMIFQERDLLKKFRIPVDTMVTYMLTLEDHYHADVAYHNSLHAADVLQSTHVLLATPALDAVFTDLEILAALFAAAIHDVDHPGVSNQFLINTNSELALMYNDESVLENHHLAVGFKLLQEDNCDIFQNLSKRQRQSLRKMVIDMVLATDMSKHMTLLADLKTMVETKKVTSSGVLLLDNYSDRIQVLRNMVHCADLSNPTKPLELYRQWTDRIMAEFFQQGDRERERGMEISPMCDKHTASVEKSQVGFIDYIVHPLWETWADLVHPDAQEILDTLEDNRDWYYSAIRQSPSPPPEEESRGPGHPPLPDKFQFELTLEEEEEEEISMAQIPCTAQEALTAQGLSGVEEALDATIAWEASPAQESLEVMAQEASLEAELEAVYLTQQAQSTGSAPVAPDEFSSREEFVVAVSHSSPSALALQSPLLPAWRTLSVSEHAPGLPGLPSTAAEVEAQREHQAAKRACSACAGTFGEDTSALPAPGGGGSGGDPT
# Chain of recombinant PDE4D (Q08499 whole entry, species assumed): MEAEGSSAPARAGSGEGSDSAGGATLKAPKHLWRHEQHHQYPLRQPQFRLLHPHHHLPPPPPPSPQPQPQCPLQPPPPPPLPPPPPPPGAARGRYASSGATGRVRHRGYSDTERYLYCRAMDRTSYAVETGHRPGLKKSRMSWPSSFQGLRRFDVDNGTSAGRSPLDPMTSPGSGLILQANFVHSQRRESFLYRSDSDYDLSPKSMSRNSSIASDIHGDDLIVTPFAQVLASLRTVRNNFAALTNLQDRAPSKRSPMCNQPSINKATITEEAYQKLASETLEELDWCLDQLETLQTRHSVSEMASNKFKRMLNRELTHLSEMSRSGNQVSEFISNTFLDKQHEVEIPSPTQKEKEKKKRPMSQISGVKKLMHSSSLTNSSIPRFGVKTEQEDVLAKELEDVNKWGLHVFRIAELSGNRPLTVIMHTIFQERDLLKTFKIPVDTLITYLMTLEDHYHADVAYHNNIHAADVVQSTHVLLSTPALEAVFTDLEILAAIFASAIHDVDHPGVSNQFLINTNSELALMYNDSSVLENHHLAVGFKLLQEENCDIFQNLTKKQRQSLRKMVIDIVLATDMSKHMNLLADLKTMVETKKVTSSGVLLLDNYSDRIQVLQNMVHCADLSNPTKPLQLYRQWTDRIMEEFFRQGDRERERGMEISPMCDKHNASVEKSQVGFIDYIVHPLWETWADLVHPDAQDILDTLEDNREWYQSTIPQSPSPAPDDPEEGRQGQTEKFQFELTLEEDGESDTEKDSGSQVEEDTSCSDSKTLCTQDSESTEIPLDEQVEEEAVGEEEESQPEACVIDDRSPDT
Structure (SMILES),"inhibition percentage of TNF-α secretion vs PBS control group [3, 16]","inhibition percentage of TNF-α secretion vs PBS control group [3, 17]",IC50 [4] [µM],IC50 [7] [µM],"percentage of mice with proteinuria detected [8, 18]",age at which first anti-DNA Ab positive mice appeared [9] [weeks],IC50 [10] [µM],IC50 [14] [µM],effect on survival / life expectancy of MRL/lpr mice [15],further results
"CNc1nc(C(F)(F)F)nc2c1ncn2Cc1ccccc1F [NCS 613, 9-(2-fluorobenzyl)-N(6)-methyl-2-trifluoromethyladenine]",44%,54%,0.042,39,50%,20,24,4.7,markedly prolongs the life expectancy,"inhibition at 10 µM [1]: 67%; IC50 [2]: > 300 µM; IC50 [5]: 0.014 µM; IC50 [6]: 0.05 µM; percentage of mice with proteinuria detected ([8]; at 14 weeks of age, 4 i.v. administrations at 5, 7, 9, 13 weeks (NCS 613 30 μg)): 10%; percentage of mice positive for anti-DNA Abs in serum ([9]; at 20 weeks of age): 20%; percentage of mice positive for anti-DNA Abs in serum ([9]; at 26 weeks of age, 13 weeks after end of treatment): 50%; IC50 [11]: 0.043 µM; inhibition percentage of TNF-α secretion by mononuclear blood cells of lupus (SLE) patients, individual patients ([12]; 10 μM, LPS stimulation, 3 lupus patients): 69% and 91% and 98%; inhibition at 10 µM ([12]; LPS stimulation, mean of 3 patients, read-out: mean inhibition percentage of TNF-α secretion by mononuclear blood cells of lupus (SLE) patients): 86%; inhibition at 10 µM ([12]; patients with SLE, RA, Sjögren's syndrome, read-out: inhibition of TNF-α production by LPS-stimulated blood cells of autoimmune patients): 70 to 98%; IC50 [13]: 0.0014 µM; mortality ([15]; at 21 weeks of age, 4 i.v. administrations of 30 μg): 30%"
"CCCCn1c(=O)c2c(ncn2CC(C)=O)n(CCCC)c1=O [Denbufylline, denbufylline, reference compound]",Equivalent results,even greater than that obtained with compound NCS 613,0.76,33,equivalent to that of control mice,14,208,5.4,no acknowledged effect on mouse survival,IC50 PDE6 [2]: n.s; age at which mortality begins ([15]; 4 i.v. administrations of 100 μg): 15 weeks
